Data on 17 molecules can be found in patent US20240208992A1, “MACROCYCLES AS CFTR MODULATORS” (Idorsia Pharmaceuticals Ltd, priority 2021, published 2024).

This assay addresses human F508del-CFTR (Homo sapiens, UniProt P13569, DEL508-508). The assay is described as follows: F508del-CFTR cell surface expression (corrector activity), DiscoveRx ß-galactosidase complementation chemiluminescence assay in recombinant U2OS cell line.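 On all read-outs here: U2OS cells co-expressing ProLink-tagged F508del-CFTR and a membrane-anchored enzyme acceptor, where more surface CFTR restores β-galactosidase activity measured by chemiluminescence.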 As to conditions: for EC50: EC50, F508del-CFTR cell surface expression, geomean values; for Emax: arithmetic mean values.
Setting [1] is: U2OS cell line, 16h compound incubation.
Where [2] appears, read: U2OS, in relation to the Emax of the corrector lumacaftor (=100%), U2OS cell line, 16h compound incubation.
[3] abbreviates: U2OS, in relation to Emax of corrector lumacaftor (=100%).
The mark [4] stands for this setting: U2OS cells, 16h compound incubation.
Setting [5] is: in relation to Emax of corrector lumacaftor (=100%).

Sequence of human F508del-CFTR (P13569 with tags, fused parts or gaps DEL508-508): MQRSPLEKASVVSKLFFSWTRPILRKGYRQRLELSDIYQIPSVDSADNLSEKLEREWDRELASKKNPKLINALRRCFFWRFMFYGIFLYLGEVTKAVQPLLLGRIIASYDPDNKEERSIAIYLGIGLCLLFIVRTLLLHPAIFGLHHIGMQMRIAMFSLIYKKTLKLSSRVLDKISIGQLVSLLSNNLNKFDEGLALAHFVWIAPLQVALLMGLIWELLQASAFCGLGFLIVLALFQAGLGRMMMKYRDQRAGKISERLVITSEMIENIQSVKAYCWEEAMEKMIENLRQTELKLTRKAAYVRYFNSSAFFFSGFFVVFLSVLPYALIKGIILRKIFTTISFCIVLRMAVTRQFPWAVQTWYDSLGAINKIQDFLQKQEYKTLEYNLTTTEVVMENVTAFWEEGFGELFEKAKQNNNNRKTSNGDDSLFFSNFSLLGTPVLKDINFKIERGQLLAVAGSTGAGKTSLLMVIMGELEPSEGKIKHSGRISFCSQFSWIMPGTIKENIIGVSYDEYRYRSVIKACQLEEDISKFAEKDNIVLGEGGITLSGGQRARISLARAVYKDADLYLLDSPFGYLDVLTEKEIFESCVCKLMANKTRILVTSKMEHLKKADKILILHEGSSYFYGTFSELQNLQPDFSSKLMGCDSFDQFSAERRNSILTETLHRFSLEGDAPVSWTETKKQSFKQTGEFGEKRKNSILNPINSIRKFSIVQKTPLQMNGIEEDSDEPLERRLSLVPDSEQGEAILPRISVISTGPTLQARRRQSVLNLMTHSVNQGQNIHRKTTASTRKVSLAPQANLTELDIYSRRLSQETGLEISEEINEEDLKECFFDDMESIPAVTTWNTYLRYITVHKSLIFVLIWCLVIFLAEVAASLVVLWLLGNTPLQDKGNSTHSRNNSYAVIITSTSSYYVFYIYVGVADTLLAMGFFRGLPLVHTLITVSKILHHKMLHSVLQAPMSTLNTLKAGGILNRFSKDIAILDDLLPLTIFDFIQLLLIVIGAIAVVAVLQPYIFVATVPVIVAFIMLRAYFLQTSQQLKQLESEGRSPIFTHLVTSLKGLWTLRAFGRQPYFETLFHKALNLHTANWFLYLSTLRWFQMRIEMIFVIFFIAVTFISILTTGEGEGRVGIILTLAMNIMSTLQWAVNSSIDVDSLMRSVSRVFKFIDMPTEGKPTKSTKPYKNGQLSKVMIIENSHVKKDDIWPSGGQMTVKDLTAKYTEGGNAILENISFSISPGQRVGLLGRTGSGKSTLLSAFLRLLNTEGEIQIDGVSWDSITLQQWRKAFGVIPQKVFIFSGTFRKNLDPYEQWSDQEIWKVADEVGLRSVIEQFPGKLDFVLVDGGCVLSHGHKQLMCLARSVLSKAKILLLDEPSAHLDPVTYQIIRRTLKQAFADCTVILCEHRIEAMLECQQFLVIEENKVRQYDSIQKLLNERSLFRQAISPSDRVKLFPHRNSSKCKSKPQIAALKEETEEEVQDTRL
Method: The method measures the effect of over-night compound incubation on F508del-CFTR cell surface expression in a recombinant U2OS cell line (DiscoveRx, #93-0987C3). This cell line is engineered to co-express (i) human F508del-CFTR tagged with a Prolink (PK=short ß-galactosidase fragment) and (ii) the remainder of the ß-galactosidase enzyme (Enzyme Acceptor; EA) localized to the plasma membrane. Incubation with compounds that increase PK-tagged F508del-CFTR at the plasma membrane will lead to complementation of the EA fragment to form a functional ß-galactosidase enzyme which is quantified by a chemiluminescence reaction.
The cells are incubated for 5h in the incubator before the addition of 5 μl/well of compound dilution series (5× working stocks in full medium). […] The cells are co-incubated with the compounds for 16h in the incubator at 37° C., 5% CO2. The next day, the cell plates are incubated for 2h at RT in the dark. […] Concentration-response curves are generated using compound-intrinsic maximal efficacy as upper plateau, and from these CRCs compound-intrinsic EC50 values are determined.
The calculated EC50 values may fluctuate depending on the daily assay performance. […] EC50 values from several measurements are given as geomean values. The calculated Emax values may fluctuate depending on the daily assay performance. […] Emax values from several measurements are given as arithmetic mean values.

Take `COc1cccc(CCNC(=O)[C@@H]2CC(=O)N(C)[C@@H](CC(C)C)C(=O)N(CC[C@H]3CCCCO3)CC(=O)N[C@H](Cc3ccccc3)COc3ccc4ccccc4c3C(=O)N2)c1` (racemic) [Example 297, (3RS,7S,13R)-13-benzyl-7-isobutyl-N-(3-methoxyphenethyl)-6-methyl-1,5,8,11-tetraoxo-9-(2-((SR)-tetrahydro-2H-pyran-2-yl)ethyl)-1,2,3,4,5,6,7,8,9,10,11,12,13,14-tetradecahydronaphtho[1,2-p][1]oxa[4,7,10,14]tetraazacycloheptadecine-3-carboxamide]: the EC50 (commonly the concentration at which the effect is half-maximal) under setting [1] turned out to be 193 nM. In addition, under setting [2], the Emax (in general, the size of the effect at its maximum, as opposed to the concentration needed) was found to be 225%.

Consider `COc1cccc(CCNC(=O)[C@@H]2CC(=O)N(C)[C@@H](CC3CCCC3)C(=O)N(CC[C@H]3CCCCO3)CC(=O)N[C@H](Cc3ccccc3)COc3ccc4ccccc4c3C(=O)N2)c1` (racemic) [Example 298, (3RS,7S,13R)-13-benzyl-7-(cyclopentylmethyl)-N-(3-methoxyphenethyl)-6-methyl-1,5,8,11-tetraoxo-9-(2-((SR)-tetrahydro-2H-pyran-2-yl)ethyl)-1,2,3,4,5,6,7,8,9,10,11,12,13,14-tetradecahydronaphtho[1,2-p][1]oxa[4,7,10,14]tetraazacycloheptadecine-3-carboxamide], for which the EC50 under setting [1] came to 220 nM. Moreover, the Emax under setting [2] turned out to be 186%.

`COc1cccc(CCNC(=O)[C@@H]2CC(=O)N(C)[C@@H](CC3CCCCC3)C(=O)N(CC[C@H]3CCCCO3)CC(=O)N[C@H](Cc3ccccc3)COc3ccc4ccccc4c3C(=O)N2)c1` (racemic) [Example 299, (3RS,7S,13R)-13-benzyl-7-(cyclohexylmethyl)-N-(3-methoxyphenethyl)-6-methyl-1,5,8,11-tetraoxo-9-(2-((SR)-tetrahydro-2H-pyran-2-yl)ethyl)-1,2,3,4,5,6,7,8,9,10,11,12,13,14-tetradecahydronaphtho[1,2-p][1]oxa[4,7,10,14]tetraazacycloheptadecine-3-carboxamide]: the half-maximal effective concentration (EC50) under setting [1] turned out to be 109 nM. Besides, the maximum response (Emax) under setting [2] came out at 136%.

Turning to `COc1cccc(CCNC(=O)[C@@H]2CC(=O)N(C)[C@@H](CC3CCCC3)C(=O)N(CCC3CCCCC3)CC(=O)N[C@H](Cc3ccccc3)COc3ccc4ccccc4c3C(=O)N2)c1` (racemic) [Example 300, (3RS,7S,13R)-13-benzyl-9-(2-cyclohexylethyl)-7-(cyclopentylmethyl)-N-(3-methoxyphenethyl)-6-methyl-1,5,8,11-tetraoxo-1,2,3,4,5,6,7,8,9,10,11,12,13,14-tetradecahydronaphtho[1,2-p][1]oxa[4,7,10,14]tetraazacycloheptadecine-3-carboxamide], the Emax under setting [2] is 210%.

Regarding `COc1cccc(CCNC(=O)[C@@H]2CC(=O)N(C)[C@@H](CC3CCCCC3)C(=O)N(CCC3CCCCC3)CC(=O)N[C@H](Cc3ccccc3)COc3ccc4ccccc4c3C(=O)N2)c1` (racemic) [Example 301, (3RS,7S,13R)-13-benzyl-9-(2-cyclohexylethyl)-7-(cyclohexylmethyl)-N-(3-methoxyphenethyl)-6-methyl-1,5,8,11-tetraoxo-1,2,3,4,5,6,7,8,9,10,11,12,13,14-tetradecahydronaphtho[1,2-p][1]oxa[4,7,10,14]tetraazacycloheptadecine-3-carboxamide], the Emax under setting [2] was 202%.

In the case of `COc1cccc(CCNC(=O)[C@@H]2CC(=O)N(C)[C@@H](CC3CCC3)C(=O)N(CCC3CCCCC3)CC(=O)N[C@H](Cc3ccccc3)COc3ccc4ccccc4c3C(=O)N2)c1` (racemic) [Example 302, (3RS,7S,13R)-13-benzyl-7-(cyclobutylmethyl)-9-(2-cyclohexylethyl)-N-(3-methoxyphenethyl)-6-methyl-1,5,8,11-tetraoxo-1,2,3,4,5,6,7,8,9,10,11,12,13,14-tetradecahydronaphtho[1,2-p][1]oxa[4,7,10,14]tetraazacycloheptadecine-3-carboxamide], the EC50 under setting [1] was 106 nM. Further, the Emax under setting [2] was 193%.

As for `COc1cccc(CCNC(=O)[C@@H]2CC(=O)N(C)[C@@H](CC(C)C)C(=O)N(CCC3CCCCC3)CC(=O)N[C@H](Cc3ccccc3)COc3ccc4ccccc4c3C(=O)N2)c1` (racemic) [Example 303, (3RS,7S,13R)-13-benzyl-9-(2-cyclohexylethyl)-7-isobutyl-N-(3-methoxyphenethyl)-6-methyl-1,5,8,11-tetraoxo-1,2,3,4,5,6,7,8,9,10,11,12,13,14-tetradecahydronaphtho[1,2-p][1]oxa[4,7,10,14]tetraazacycloheptadecine-3-carboxamide], the EC50 under setting [1] stood at 180 nM. The Emax under setting [2] worked out at 275%.

As for `COc1cccc2c1C(=O)N[C@H](C(=O)NCCc1ccc3c(c1)OCO3)CC(=O)N(C)[C@@H](CC(C)C)C(=O)N(CC[C@H]1CCCCO1)CC(=O)N[C@H](Cc1ccccc1)CO2` (racemic) [Example 304, (3R,9S,13S)-N-(2-(benzo[d][1,3]dioxol-5-yl)ethyl)-3-benzyl-9-isobutyl-16-methoxy-10-methyl-5,8,11,15-tetraoxo-7-(2-((RS)-tetrahydro-2H-pyran-2-yl)ethyl)-2,3,4,5,6,7,8,9,10,11,12,13,14,15-tetradecahydrobenzo[p][1]oxa[4,7,10,14]tetraazacycloheptadecine-13-carboxamide], the concentration giving a half-maximal response (EC50) under setting [1] amounted to 581 nM. Moreover, the maximum response (Emax) under setting [2] turned out to be 193%.

Take `COc1cccc(CCNC(=O)[C@@H]2CC(=O)N(C)[C@@H](CC(C)C)C(=O)N(CC[C@H]3CCCCO3)CC(=O)N[C@H](Cc3ccccc3)COc3cccc(OC)c3C(=O)N2)c1` (racemic) [Example 310]: the EC50 under setting [1] was found to be 788 nM. Also, the Emax under setting [2] was determined as 202%.

Take `COc1cccc(CCNC(=O)[C@@H]2CC(=O)N(C)[C@@H](CC(C)C)C(=O)N(C)[C@@H](CO)C(=O)N[C@H](Cc3ccccc3)COc3ccc4ccccc4c3C(=O)N2)c1` (racemic) [Example 718, (3S,7S,10RS,13R)-13-benzyl-10-(hydroxymethyl)-7-isobutyl-N-(3-methoxyphenethyl)-6,9-dimethyl-1,5,8,11-tetraoxo-1,2,3,4,5,6,7,8,9,10,11,12,13,14-tetradecahydronaphtho[1,2-p][1]oxa[4,7,10,14]tetraazacycloheptadecine-3-carboxamide]: the maximum response (Emax) under setting [3] worked out at 272%.

Consider `Cc1cc(CCNC(=O)[C@@H]2CC(=O)N(C)[C@@H](CC(C)C)C(=O)N(C)[C@@H](COC(C)(C)C)C(=O)N[C@H](Cc3ccccc3)COc3ccc4ccccc4c3C(=O)N2)on1` (racemic) [Example 719, (3S,7S,10RS,13R)-13-benzyl-10-(tert-butoxymethyl)-7-isobutyl-6,9-dimethyl-N-(2-(3-methylisoxazol-5-yl)ethyl)-1,5,8,11-tetraoxo-1,2,3,4,5,6,7,8,9,10,11,12,13,14-tetradecahydronaphtho[1,2-p][1]oxa[4,7,10,14]tetraazacycloheptadecine-3-carboxamide], for which, under setting [4], the EC50 worked out at 124 nM. Moreover, under setting [3], the Emax was determined as 313%.

As for `Cc1cc(CCNC(=O)[C@@H]2CC(=O)N(C)[C@@H](CC(C)C)C(=O)N(C)[C@@H](CO)C(=O)N[C@H](Cc3ccccc3)COc3ccc4ccccc4c3C(=O)N2)on1` (racemic) [Example 720, (3S,7S,10RS,13R)-13-benzyl-10-(hydroxymethyl)-7-isobutyl-6,9-dimethyl-N-(2-(3-methylisoxazol-5-yl)ethyl)-1,5,8,11-tetraoxo-1,2,3,4,5,6,7,8,9,10,11,12,13,14-tetradecahydronaphtho[1,2-p][1]oxa[4,7,10,14]tetraazacycloheptadecine-3-carboxamide], under setting [4], the EC50 was 881 nM. Also, the Emax under setting [3] stood at 24%.

Consider `Cc1nc2ccc3c(c2o1)C(=O)N[C@H](C(=O)NCCc1cccc([C@H](C)O)c1)CC(=O)N(C)[C@@H](CC(C)C)C(=O)N(CCC1CCCCC1)CC(=O)N[C@H](Cc1ccccc1)CO3` (racemic) [Example 728, (8R,14S,18S)-8-benzyl-12-(2-cyclohexylethyl)-N-(3-((RS)-1-hydroxyethyl)phenethyl)-14-isobutyl-2,15-dimethyl-10,13,16,20-tetraoxo-7,8,9,10,11,12,13,14,15,16,17,18,19,20-tetradecahydrooxazolo[4′,5′:5,6]benzo[1,2-p][1]oxa[4,7,10,14]tetraazacycloheptadecine-18-carboxamide], for which, under setting [4], the EC50 was 235 nM. The Emax under setting [3] came to 232%.

With `COc1nccc2c1C(=O)NC(C(=O)NCCc1cc(C3CC3)no1)CC(=O)N(C)C(CC(C)C)C(=O)N(C)C(CC1CCC(F)(F)CC1)C(=O)NC(Cc1ccccc1)CO2` (single isomer, unassigned) [Example 661], under setting [4], the EC50 is 421 nM. In addition, the Emax under setting [5] is 247%.

On to `COc1nccc2c1C(=O)NC(C(=O)NCCc1cc(C3CC3)no1)CC(=O)N(C)C(CC(C)C)C(=O)N(C)C(CC1CCC(F)(F)CC1)C(=O)NC(Cc1ccccc1)CO2` (single isomer, unassigned) [Example 662], for which, under setting [4], the EC50 turned out to be 124 nM. Under setting [5], the Emax came to 297%.

`COc1nccc2c1C(=O)N[C@H](C(=O)NCCc1cc(C3CC3)no1)CC(=O)N(C)[C@@H](CC(C)C)C(=O)N1CCC3(CC3)C[C@@H]1C(=O)N[C@H](Cc1ccccc1)CO2` (single isomer, unassigned) [Example 669, (7′S,11′S,17a′S,20′R)-20′-benzyl-N-(2-(3-cyclopropylisoxazol-5-yl)ethyl)-11′-isobutyl-4′-methoxy-10′-methyl-5′,9′,12′,18′-tetraoxo-5′,6′,7′,8′,9′,10′,11′,12′,14′,15′,17′,17a′,18′,19′,20′,21′-hexadecahydrospiro[cyclopropane-1,16′-dipyrido[2,1-f:3′,4′-p][1]oxa[4,7,10,14]tetraazacycloheptadecine]-7′-carboxamide]: the concentration for a half-maximal effect (EC50) under setting [4] came out at 856 nM. In addition, the Emax under setting [3] came out at 230%.

As to `COc1nccc2c1C(=O)N[C@H](C(=O)NCCc1cc(C3CC3)no1)CC(=O)N(C)[C@@H](CC(C)C)C(=O)N1CC[C@@H](c3ccccc3)C[C@H]1C(=O)N[C@H](Cc1ccccc1)CO2` (single isomer, unassigned) [Example 671], under setting [4], the EC50 turned out to be 235 nM. Moreover, under setting [3], the Emax came out at 179%.
